The source made the active and inactive calls. No cut-off for these calls is given here.
Experiments:
[1] = species: Mus musculus; assay: (§1) Immunosuppressive activity in OT2 mouse CD4-positive T cells derived OVA(323 to 339)-activated Th-differentiating media cultured Th1 cells assessed as reduction in pDBU/ionomycin-stimulated IFNgamma production up to 10 uM treated last 2 days of 5 days differentiation followed by pDBU/ionomycin stimulation on day 5 measured after 4 hrs by anti-mouse IFNgamma-Pacific Blue/IL-2-APC staining based flow cytometry; assay type: functional
[2] = species: Mus musculus; assay: as §1, with “Th17” for “Th1”, “[…]” for “IFNgamma”, “IL17A-APC” for “IFNgamma-Pacific Blue/IL-2-APC”; assay type: functional
[3] = species: Mus musculus; assay: as §1, with “production” for “production up to 10 uM”; assay type: functional
[4] = as §1, with “at late stage by measuring INFgamma level at” for “up to”, “cytometry (reference value: 4.34%)” for “cytometry”; assay type: functional; design: scale not given: the % may be the effect or the level left
[5] = as §1, with “at late stage by measuring INFgamma level at 100 nM” for “up to 10 uM”, “cytometry (reference value: 4.34%)” for “cytometry”; assay type: functional; design: scale not given: the % may be the effect or the level left
[6] = as §1, with “Th17” for “Th1”, “1L17A” for “IFNgamma”, “by measuring IL17A level at” for “up to”, “IL17A-APC” for “IFNgamma-Pacific Blue/IL-2-APC”, “cytometry (reference value: 1.44%)” for “cytometry”; assay type: functional; design: scale not given: the % may be the effect or the level left
[7] = as §1, with “Th17” for “Th1”, “1L17A” for “IFNgamma”, “by measuring IL17A level at 100 nM” for “up to 10 uM”, “IL17A-APC” for “IFNgamma-Pacific Blue/IL-2-APC”, “cytometry (reference value: 1.44%)” for “cytometry”; assay type: functional; design: scale not given: the % may be the effect or the level left
[8] = as §1, with “at early stage by measuring INFgamma level at” for “up to”, “cytometry (reference value: 57.3%)” for “cytometry”; assay type: functional; design: scale not given: the % may be the effect or the level left
[9] = as §1, with “at early stage by measuring INFgamma level at 100 nM” for “up to 10 uM”, “cytometry (reference value: 57.3%)” for “cytometry”; assay type: functional; design: scale not given: the % may be the effect or the level left
[10] = Cytotoxicity against OT2 mouse CD4-positive T cells assessed as cell viability at 10 uM measured after 48 hrs by live/dead viability staining based flow cytometry (reference value: 57.2%); details: read-out: Activity
[11] = Cytotoxicity against OT2 mouse CD4-positive T cells assessed as cell viability at 100 nM measured after 48 hrs by live/dead viability staining based flow cytometry (reference value: 57.2%); details: read-out: Activity
[12] = Cytotoxicity against OT1 mouse CD8-positive T cells assessed as cell viability at 10 uM measured after 48 hrs by live/dead viability staining based flow cytometry (reference value: 39.5%); details: read-out: Activity
[13] = Cytotoxicity against OT1 mouse CD8-positive T cells assessed as cell viability at 100 nM measured after 48 hrs by live/dead viability staining based flow cytometry (reference value: 39.5%); details: read-out: Activity
[14] = Toxicity in MOG/CFA/Ptx-induced C57B/6 mouse model of experimental autoimmune encephalitis assessed as adverse changes at 4 umol, ip administered on day 4, 6, and 8 starting from 2 days post-disease induction and measured up to 50 days; assay type: organism-based; details: in vivo
[15] = test system: Mus musculus; assay: Immunosuppressive activity in MOG/CFA/Ptx-induced C57B/6 mouse model of experimental autoimmune encephalitis assessed as decrease in clinical symptoms at 4 umol, ip administered on day 4, 6, and 8 starting from 2 days post-disease induction and measured daily up to 50 days; assay type: functional, organism-based
[16] = test system: Mus musculus; assay: Immunosuppressive activity in MOG/CFA/Ptx-induced C57B/6 mouse model of experimental autoimmune encephalitis assessed as time of disease onset at 4 umol, ip administered on day 4, 6, and 8 starting from 2 days post-disease induction and measured daily up to 50 days; assay type: functional
[17] = test system: Mus musculus; assay: (§2) Immunosuppressive activity in MOG/CFA/Ptx-induced C57B/6 mouse model of experimental autoimmune encephalitis assessed as change in T cell composition at 4 umol, ip administered on day 4 and 6 starting from 2 days post-disease induction and measured on day 7 post-last disease induction by immunostaining-based flow cytometry; assay type: functional, organism-based
[18] = test system: Mus musculus; assay: as §2, with “dendritic” for “T”; assay type: functional, organism-based
[19] = test system: Mus musculus; assay: as §2, with “change in regulatory T cell” for “change in T cell”; assay type: functional, organism-based
[20] = test system: Mus musculus; assay: as §2, with “macrophage” for “T cell”; assay type: functional, organism-based
[21] = test system: Mus musculus; assay: as §2, with “neutrophil” for “T cell”; assay type: functional, organism-based
[22] = test system: Mus musculus; assay: as §2, with “granulocytic myeloid-derived suppressor” for “T”; assay type: functional, organism-based
[23] = test system: Mus musculus; assay: as §2, with “live cells” for “change in T cell composition”, “live/dead staining-based” for “immunostaining-based”, “cytometry (reference value: 87.5%)” for “cytometry”; assay type: functional
[24] = test system: Mus musculus; assay: as §2, with “CD11b+ F4/80+ cells” for “change in T cell composition”, “cytometry (reference value: 15%)” for “cytometry”; assay type: functional
[25] = test system: Mus musculus; assay: as §2, with “macrophage cells” for “change in T cell composition”, “cytometry (reference value: 10.5%)” for “cytometry”; assay type: functional
[26] = test system: Mus musculus; assay: as §2, with “granulocytic myeloid-derived suppressor cells” for “change in T cell composition”, “cytometry (reference value: 28.1%)” for “cytometry”; assay type: functional
[27] = test system: Mus musculus; assay: as §2, with “inflammatory neutrophil cells” for “change in T cell composition”, “cytometry (reference value: 35.2%)” for “cytometry”; assay type: functional

SMILES: CC[C@@H]1C[C@@]2(C)[C@@H]3CCC[C@@H](Cc4c(O)c(C)c(C)oc4=O)[C@@]3(C)CC[C@@H]2O1
- Activity [1]: Active
- Activity [2]: Active

SMILES: CC(C)=CC1Cc2c(ccc3c(Cc4c(O)c(C)c(C)oc4=O)cccc23)O1 (stereo not given)
- Activity [1]: Active
- Activity [2]: Active

SMILES: C=C1CC[C@H]2[C@]3(C)C[C@@H](C=C(C)C)O[C@H]3CC[C@]2(C)[C@@H]1Cc1c(O)c(C)c(C)oc1=O [SUBGLUTINOL A]
- Activity [3]: Dose-dependent effect
- Activity [4]: 0%
- Activity [5]: 0%
- Activity [6]: 0.064%
- Activity [7]: 0.017%
- Activity [8]: 1.54%
- Activity [9]: 0.84%
- viability at 48 h, 10 µM [10]: 24.4%
- viability at 48 h, 0.1 µM [11]: 46%
- viability at 48 h, 10 µM [12]: 7.19%
- viability at 48 h, 0.1 µM [13]: 14.5%

SMILES: Cc1oc(=O)c(C[C@@H]2CCC[C@H]3CCCC[C@@]32C)c(O)c1C
- Activity [4]: 0%
- Activity [5]: 1.03%
- Activity [6]: 2.01%
- Activity [7]: 1.33%
- Activity [8]: 0.47%
- Activity [9]: 18.7%
- viability at 48 h, 10 µM [10]: 41.5%
- viability at 48 h, 0.1 µM [11]: 60.6%
- viability at 48 h, 10 µM [12]: 8.85%
- viability at 48 h, 0.1 µM [13]: 42.6%
- Activity [14]: Non-Toxic
- Activity [15]: inactive
- Time [16]: 15 days
- Activity [17]: inactive
- Activity [18]: inactive
- Activity [19]: inactive
- Activity [20]: inactive
- Activity [21]: inactive
- Activity [22]: inactive
- Activity [23]: 88.8%
- Activity [24]: 11%
- Activity [25]: 4%
- Activity [26]: 2.41%
- Activity [27]: 74.7%

SMILES: C=C1CC[C@H]2[C@]3(C)C[C@@H](C=C(C)C)O[C@H]3CC[C@]2(C)[C@@H]1Cc1ccccc1
- Activity [1]: Active
- Activity [2]: Active

SMILES: Cc1oc(=O)c(C[C@H]2CCC[C@H]3CCCC[C@@]32C)c(O)c1C
- Activity [1]: Active
- Activity [2]: Active

SMILES: CC[C@@H]1C[C@@]2(C)[C@@H]3CCC[C@H](Cc4c(O)c(C)c(C)oc4=O)[C@@]3(C)CC[C@@H]2O1
- Activity [1]: Active
- Activity [2]: Active

Reference: ChEMBL document CHEMBL4376842, “Synthesis and Biological Evaluation of Subglutinol Analogs for Immunomodulatory Agents” (J Med Chem, 2020)
